Row | SMILES | melting point
1 | Nc1ncnc2c1c1cc(Cl)ccc1n2[C@@H]1O[C@H](CO)[C@@H](O)[C@@H]1O | 298 to 301 °C
2 | COc1ncnc2c1c1cc(Cl)ccc1n2[C@@H]1O[C@H](CO)[C@@H](O)[C@@H]1O | 238 to 241 °C
3 | CSc1ncnc2c1c1cc(Cl)ccc1n2[C@@H]1O[C@H](CO)[C@@H](O)[C@@H]1O | 181 to 183 °C
4 | Cc1ncnc2c1c1cc(Cl)ccc1n2[C@@H]1O[C@H](CO)[C@@H](O)[C@@H]1O | 233 to 235 °C
5 | OC[C@H]1O[C@@H](n2c3ccc(Cl)cc3c3c(-c4ccco4)ncnc32)[C@@H](O)[C@@H]1O | 241 to 243 °C
6 | OC[C@H]1O[C@@H](n2c3ccc(Cl)cc3c3c(-c4ccoc4)ncnc32)[C@@H](O)[C@@H]1O | 186 to 188 °C
7 | OC[C@H]1O[C@@H](n2c3ccc(Cl)cc3c3c(-c4cccs4)ncnc32)[C@@H](O)[C@@H]1O | 192 to 194 °C
8 | OC[C@H]1O[C@@H](n2c3ccc(Cl)cc3c3c(-c4ccsc4)ncnc32)[C@@H](O)[C@@H]1O | 207 to 209 °C
9 | OC[C@H]1O[C@@H](n2c3ccc(Cl)cc3c3c(-c4ccccc4)ncnc32)[C@@H](O)[C@@H]1O | 183 to 185 °C
10 | Nc1ncnc2c1c1cc(Cl)ccc1n2[C@@H]1O[C@H](CO)[C@@H](O)[C@H]1F | 275 to 278 °C
11 | CSc1ncnc2c1c1cc(Cl)ccc1n2[C@@H]1O[C@H](CO)[C@@H](O)[C@H]1F | 205 to 209 °C
12 | Cc1ncnc2c1c1cc(Cl)ccc1n2[C@@H]1O[C@H](CO)[C@@H](O)[C@H]1F | 247 to 251 °C
13 | OC[C@H]1O[C@@H](n2c3ccc(Cl)cc3c3c(-c4ccco4)ncnc32)[C@H](F)[C@@H]1O | 203 to 206 °C
14 | OC[C@H]1O[C@@H](n2c3ccc(Cl)cc3c3c(-c4ccoc4)ncnc32)[C@H](F)[C@@H]1O | 184 to 186 °C
15 | OC[C@H]1O[C@@H](n2c3ccc(Cl)cc3c3c(-c4cccs4)ncnc32)[C@H](F)[C@@H]1O | 206 to 211 °C
16 | OC[C@H]1O[C@@H](n2c3ccc(Cl)cc3c3c(-c4ccsc4)ncnc32)[C@H](F)[C@@H]1O | 221 to 222 °C
17 | OC[C@H]1O[C@@H](n2c3ccc(Cl)cc3c3c(-c4ccccc4)ncnc32)[C@H](F)[C@@H]1O | 192 to 193 °C
18 | Nc1ncnc2c1c1cc(Cl)ccc1n2[C@@H]1O[C@H](CO)[C@@H](O)[C@@H]1F | 267 to 272 °C
19 | COc1ncnc2c1c1cc(Cl)ccc1n2[C@@H]1O[C@H](CO)[C@@H](O)[C@@H]1F | 248 to 250 °C
20 | CSc1ncnc2c1c1cc(Cl)ccc1n2[C@@H]1O[C@H](CO)[C@@H](O)[C@@H]1F | 230 to 231 °C
21 | Cc1ncnc2c1c1cc(Cl)ccc1n2[C@@H]1O[C@H](CO)[C@@H](O)[C@@H]1F | 211 to 216 °C
22 | OC[C@H]1O[C@@H](n2c3ccc(Cl)cc3c3c(-c4ccco4)ncnc32)[C@@H](F)[C@@H]1O | 75 to 81 °C
23 | OC[C@H]1O[C@@H](n2c3ccc(Cl)cc3c3c(-c4ccoc4)ncnc32)[C@@H](F)[C@@H]1O | 208 to 214 °C
24 | OC[C@H]1O[C@@H](n2c3ccc(Cl)cc3c3c(-c4cccs4)ncnc32)[C@@H](F)[C@@H]1O | 225 to 227 °C
25 | OC[C@H]1O[C@@H](n2c3ccc(Cl)cc3c3c(-c4ccsc4)ncnc32)[C@@H](F)[C@@H]1O | 240 to 241 °C
26 | OC[C@H]1O[C@@H](n2c3ccc(Cl)cc3c3c(-c4ccccc4)ncnc32)[C@@H](F)[C@@H]1O | 214 to 216 °C

Reference: PMC6084004 (2017)
